Source: US12435069B2, “Cocrystals of posaconazole, methods of making and using same” (REGENTS OF THE UNIVERSITY OF MICHIGAN, priority 2019, dated 2025)
Converted amounts (≈) assume the structure as drawn. “And” between values parts separate entries of the source, which are not always exact repeats. Equal entries are not always repeated. Where two headings read alike, the source gives them in different places. Blank lines part the entries; values can stand above or below the molecule they belong to.

How the values were obtained:
[1] = Dissolution of drug or cocrystal in biorelevant media (FaSSIF, FeSSIF); type: physicochemical; conditions: for Cmax / AUC (area under the dissolution curve): 25 °C; for Cmax: 150 rpm, 3 h, 300 mg dose in 250 mL equivalent; for AUC (area under the dissolution curve): up to 180 min; for Final pH: after dissolution
Experimental: (§1) Blank FaSSIF (pH 6.50 phosphate buffer) was prepared at room temperature by dissolving 0.683 g of NaOH (pellets), 7.902 g of NaH2PO4·H2O, and 12.372 g NaCl in 2 L of purified deionized (DI) water. The pH was adjusted to 6.50 (±0.04) with 1 M NaOH and 1 M HCl solutions. Blank FeSSIF (pH 5.00 acetate buffer) was prepared at room temperature by dissolving 8.089 g NaOH (pellets), 16.4 mL acetic acid, and 23.748 g NaCl in 2 L of purified DI water. The pH was adjusted to 5.00 (±0.03) with 1 M NaOH and 1 M HCl solutions. FaSSIF and FeSSIF media were prepared by dissolving appropriate amounts of FaSSIF/FeSSIF powder in the blank media according to the manufacturer, then stored at room temperature and used within 48 hours. Blank FaSSGF (pH 1.60 buffer) was prepared at room temperature by dissolving 1.999 g of sodium chloride in 1 L of DI water. The pH was adjusted to 1.60 (±0.05) with 2 M HCl solution.
Dissolution studies of drug or cocrystal were conducted using an overhead stirrer with a glass propeller at 150 rpm over three hours. Based on a 300 mg dose in 250 mL, 36 mg of PSZ drug or 46.6 mg PSZ-4ABA cocrystal (molar equivalent PSZ amount) were added to 30 mL of dissolution media. Dissolution studies were done in FaSSIF and FeSSIF with sieved fractions of drug and cocrystals in a particle size range of 106 to 125 μm. The dissolution experiments were conducted in a water bath at 25.0 (±0.5) ° C. Initial and final solution pH was measured. Aliquots of 0.5 mL were taken with a syringe at time points up to 180 minutes. The solution samples were filtered through syringe filter with PvDF membrane of a pore size of 0.45 μm. The solution concentrations of drug and coformer were analyzed with a Waters HPLC equipped with a photodiode array UV detector. A Waters Atlantis C18 column with the dimension of 5 μm, 250×4.6 mm was used for separation. A gradient method using methanol and water with 0.1% trifluoroacetic acid was run with the flow rate set at 1 mL/min. […] The wavelengths used for the analytes were […] for PSZ, and 287 nm for 4ABA.

[2] = Cocrystal eutectic constant (Keu): coformer and drug concentrations at the eutectic point in buffers and biorelevant media; type: physicochemical; conditions: for solubility: thermodynamic from solid, read-out: [PSZ]eu (also solubility of drug at equilibrium); for solubility / Keu ([coformer]eu/[drug]eu) / [4ABA]eu (coformer concentration at the eutectic point): 25 °C
Experimental: as §1
Cocrystal eutectic constant (Keu), which is well recognized as a key stability and solubility indicator, was determined from measurement of coformer and drug concentrations at the eutectic point, where drug and cocrystal solid phases are in equilibrium with solution according to Keu=[coformer]eu/[drug]eu. An excess amount of PSZ (approximately 200 mg) and 150 mg of PSZ-4ABA were suspended in 3 mL of blank FaSSGF, blank FaSSIF, blank FeSSIF, FaSSIF, or FeSSIF media. Biorelevant media included FaSSIF and FeSSIF. Blank media was the buffer solution in the biorelevant media without the lecithin and bile salt. The suspensions were kept in a water bath at 25.0±0.1° C. and magnetically stirred for up to 72-96 hours. Sample solutions were filtered through 0.45 μm cellulose acetate filters and analyzed by HPLC. The pH was measured and the equilibrium solids were characterized by DSC and PXRD.
Keu is proportional to the cocrystal solubility advantage over drug (SA=Scc/Sdrug), and for a 2:3 cocrystal is given by
[formula] […] Scc is lower than Sdrug when Keu is lower than 1.5. See is equal to Sdrug when Keu is equal to 1.5. The higher the Keu value, the higher is the cocrystal solubility advantage over drug (SA) and Scc.

[3] = cited from earlier work
[4] = in vivo; cited from earlier work

SMILES: CC[C@@H]([C@H](C)O)n1ncn(-c2ccc(N3CCN(c4ccc(OC[C@@H]5CO[C@@](Cn6cncn6)(c6ccc(F)cc6F)C5)cc4)CC3)cc2)c1=O [PSZ, Posaconazole]
Cmax ([1]; FaSSIF): 4.5 ± 0.2 µM | AUC (area under the dissolution curve) ([1]; FaSSIF): 745 ± 18 µM·min | Final pH ([1]; FaSSIF): 6.58 ± 0.01 | Cmax ([1]; FeSSIF): 7 ± 3 µM | AUC (area under the dissolution curve) ([1]; FeSSIF): 1190 ± 104 µM·min | Final pH ([1]; FeSSIF): 4.95 ± 0.01 | solubility ([2]; aqueous buffer, Blank FaSSIF, final pH 5.12): 0.1 ± 0.04 µM (≈ 0.0701 µg/mL) | solubility ([2]; aqueous buffer, Blank FeSSIF, final pH 5.11): 0.12 ± 0.02 µM (≈ 0.0841 µg/mL) | solubility ([2]; simulated gastric fluid, Blank FaSSGF, final pH 1.94): 83 ± 4 µM (≈ 58.2 µg/mL) | solubility ([2]; FaSSIF, final pH 5.07): 3.6 ± 0.8 µM (≈ 2.52 µg/mL) | solubility ([2]; FeSSIF, final pH 5.03): 18 ± 5 µM (≈ 12.6 µg/mL) | Log P [3]: 4.6 | aqueous solubility [3]: < 1 µg/mL | fraction absorbed [4]: < 30%

RAUC (AUCPSZ-4ABA/AUCPSZ) ([1]; FaSSIF): 4.1 and 4.1 ± 0.3 | Cmax ([1]; FaSSIF): 48 ± 4 µM | AUC (area under the dissolution curve) ([1]; FaSSIF): 3052 ± 209 µM·min | Final pH ([1]; FaSSIF): 6.37 ± 0.01 | RAUC (AUCPSZ-4ABA/AUCPSZ) ([1]; FeSSIF): 13 and 13 ± 4 | Cmax ([1]; FeSSIF): 148 ± 3 µM | AUC (area under the dissolution curve) ([1]; FeSSIF): 15,670 ± 4612 μM × min | Final pH ([1]; FeSSIF): 5.01 ± 0.01 | Keu ([coformer]eu/[drug]eu) ([2]; Blank FaSSGF, final pH 1.94): 0.0028 ± 0.0002 ×10^5 | [4ABA]eu (coformer concentration at the eutectic point) ([2]; Blank FaSSGF, final pH 1.94): 27.3 ± 0.4 mM | Final pH (pH at equilibrium) ([2]; Blank FaSSGF, initial pH 1.60): 1.94 ± 0.01 | Keu ([coformer]eu/[drug]eu) ([2]; Blank FaSSIF, final pH 5.12): 1.7 ± 0.6 ×10^5 | [4ABA]eu (coformer concentration at the eutectic point) ([2]; Blank FaSSIF, final pH 5.12): 17.4 ± 0.1 mM | Final pH (pH at equilibrium) ([2]; Blank FaSSIF, initial pH 6.55): 5.12 ± 0.03 | Keu ([coformer]eu/[drug]eu) ([2]; Blank FeSSIF, final pH 5.11): 1.2 ± 0.3 ×10^5 | [4ABA]eu (coformer concentration at the eutectic point) ([2]; Blank FeSSIF, final pH 5.11): 14.5 ± 0.2 mM | Final pH (pH at equilibrium) ([2]; Blank FeSSIF, initial pH 5.03): 5.11 ± 0.01 | Keu ([coformer]eu/[drug]eu) ([2]; FaSSIF, final pH 5.07): 0.06 ± 0.01 ×10^5 | [4ABA]eu (coformer concentration at the eutectic point) ([2]; FaSSIF, final pH 5.07): 20.2 ± 0.4 mM | Final pH (pH at equilibrium) ([2]; FaSSIF, initial pH 6.50): 5.07 ± 0.04 | Keu ([coformer]eu/[drug]eu) ([2]; FeSSIF, final pH 5.03): 0.010 ± 0.003 ×10^5 | [4ABA]eu (coformer concentration at the eutectic point) ([2]; FeSSIF, final pH 5.03): 17.3 ± 0.5 mM | Final pH (pH at equilibrium) ([2]; FeSSIF, initial pH 5.03): 5.03 ± 0.14 | decrease of Sco (cocrystal solubility) with pH ([2]; pH increases from 1.9 to 5.1): 20 times
SMILES: CCC(C(C)O)n1ncn(-c2ccc(N3CCN(c4ccc(OCC5COC(Cn6cncn6)(c6ccc(F)cc6F)C5)cc4)CC3)cc2)c1=O.CCC(C(C)O)n1ncn(-c2ccc(N3CCN(c4ccc(OCC5COC(Cn6cncn6)(c6ccc(F)cc6F)C5)cc4)CC3)cc2)c1=O.Nc1ccc(C(=O)O)cc1.Nc1ccc(C(=O)O)cc1.Nc1ccc(C(=O)O)cc1 (centres unmarked) [PSZ-4ABA, posaconazole-4-aminobenzoic acid (PSZ-4ABA) cocrystal]
